In patent publication US12258327B2, “5-membered heteroaryl-containing aminopyridine compounds as EGFR inhibitors” (YUHAN CORPORATION, priority 2021, dated 2025):
Where two headings read alike, the source gives them in different places.

Columns and labels:
EGFR del19/C797S = EGFR del19/C797S (Homo sapiens, UniProt P00533, C797S/DEL746-750); assay: Biochemical EGFR kinase assay (Lance Ultra TR-FRET), double mutant del19/C797S
Procedure, shortened: (§1)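 Kinase activity is measured by TR-FRET phosphopeptide detection. Compounds span 0.003 μM to 10 μM; the 1 h reaction at room temperature is quenched with EDTA, then labelled antibody (2 nM) is incubated 60 min before reading.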

EGFR L858R/C797S = EGFR L858R/C797S (Homo sapiens, UniProt P00533, C797S/L858R); assay: Biochemical EGFR kinase assay (Lance Ultra TR-FRET), double mutant L858R/C797S
Procedure, shortened: as §1

EGFR del19/T790M/C797S = EGFR del19/T790M/C797S (Homo sapiens, UniProt P00533, C797S/DEL746-750/T790M); assay: Biochemical EGFR kinase assay (Lance Ultra TR-FRET), triple mutant del19/T790M/C797S
Procedure, shortened: as §1

EGFR L858R/T790M/C797S = EGFR L858R/T790M/C797S (Homo sapiens, UniProt P00533, C797S/L858R/T790M); assay: Biochemical EGFR kinase assay (Lance Ultra TR-FRET), triple mutant L858R/T790M/C797S
Procedure, shortened: as §1

EGFR wildtype (WT) = EGFR wildtype (WT) (Homo sapiens, UniProt P00533); assay: Biochemical EGFR kinase assay (Lance Ultra TR-FRET), wildtype
Procedure, shortened: as §1

[1] = IC50 del19/C797S (nM) 100 μM ATP, 100 μM ATP
[2] = Km ATP, read-out: IC50 del19/C797S (nM) Km ATP
[3] = IC50 L858R/C797S (nM) 100 μM ATP, 100 μM ATP
[4] = Km ATP, read-out: IC50 L858R/C797S (nM) Km ATP
[5] = IC50 del19/T790M/C797S (nM) 100 μM ATP, 100 μM ATP
[6] = Km ATP, read-out: IC50 del19/T790M/C797S (nM) Km ATP
[7] = IC50 L858R/T790M/C797S (nM) 100 μM ATP, 100 μM ATP
[8] = Km ATP, read-out: IC50 L858R/T790M/C797S (nM) Km ATP
[9] = IC50 WT (nM) 100 μM ATP, 100 μM ATP
[10] = Km ATP, read-out: IC50 WT (nM) Km ATP
[11] = Km ATP, read-out: IC50 del19/C797S, Km ATP
[12] = Km ATP, read-out: IC50 L858R/C797S, Km ATP
[13] = Km ATP, read-out: IC50 del19/T790M/C797S, Km ATP
[14] = Km ATP, read-out: IC50 L858R/T790M/C797S, Km ATP
[15] = Km ATP, read-out: IC50 WT, Km ATP

EGFR L858R/T790M/C797S, sequence (P00533 25-1210 T790M/C797S/L858R): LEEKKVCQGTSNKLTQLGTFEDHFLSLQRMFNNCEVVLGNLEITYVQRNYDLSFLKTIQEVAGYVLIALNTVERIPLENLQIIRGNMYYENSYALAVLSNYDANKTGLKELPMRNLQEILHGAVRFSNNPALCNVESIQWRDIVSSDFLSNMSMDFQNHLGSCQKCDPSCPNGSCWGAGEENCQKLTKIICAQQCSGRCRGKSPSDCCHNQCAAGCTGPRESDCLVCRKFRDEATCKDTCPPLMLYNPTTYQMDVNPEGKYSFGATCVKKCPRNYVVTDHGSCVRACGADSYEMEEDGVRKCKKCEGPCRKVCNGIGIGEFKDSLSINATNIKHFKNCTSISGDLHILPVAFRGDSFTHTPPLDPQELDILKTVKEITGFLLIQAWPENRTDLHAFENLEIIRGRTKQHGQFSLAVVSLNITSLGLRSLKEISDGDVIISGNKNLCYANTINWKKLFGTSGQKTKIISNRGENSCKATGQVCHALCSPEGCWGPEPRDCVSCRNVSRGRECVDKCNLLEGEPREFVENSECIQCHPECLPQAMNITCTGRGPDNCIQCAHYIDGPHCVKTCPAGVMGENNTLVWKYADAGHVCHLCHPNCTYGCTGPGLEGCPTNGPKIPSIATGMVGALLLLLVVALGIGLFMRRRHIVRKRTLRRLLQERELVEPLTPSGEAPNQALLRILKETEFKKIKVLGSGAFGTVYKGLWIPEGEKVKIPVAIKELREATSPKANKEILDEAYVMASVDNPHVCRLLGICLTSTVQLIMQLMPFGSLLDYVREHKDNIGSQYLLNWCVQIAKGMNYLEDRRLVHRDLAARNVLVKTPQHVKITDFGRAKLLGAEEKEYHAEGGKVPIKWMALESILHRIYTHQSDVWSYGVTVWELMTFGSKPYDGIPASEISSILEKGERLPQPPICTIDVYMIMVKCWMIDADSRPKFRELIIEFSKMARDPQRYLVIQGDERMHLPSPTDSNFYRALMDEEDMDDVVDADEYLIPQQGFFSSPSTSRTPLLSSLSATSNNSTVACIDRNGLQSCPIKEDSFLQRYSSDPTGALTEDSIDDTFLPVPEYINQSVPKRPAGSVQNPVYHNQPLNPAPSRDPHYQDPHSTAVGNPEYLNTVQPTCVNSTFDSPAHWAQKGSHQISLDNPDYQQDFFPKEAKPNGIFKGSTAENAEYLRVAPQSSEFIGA
EGFR del19/T790M/C797S, sequence (P00533 with tags, fused parts or gaps DEL746-750/T790M/C797S): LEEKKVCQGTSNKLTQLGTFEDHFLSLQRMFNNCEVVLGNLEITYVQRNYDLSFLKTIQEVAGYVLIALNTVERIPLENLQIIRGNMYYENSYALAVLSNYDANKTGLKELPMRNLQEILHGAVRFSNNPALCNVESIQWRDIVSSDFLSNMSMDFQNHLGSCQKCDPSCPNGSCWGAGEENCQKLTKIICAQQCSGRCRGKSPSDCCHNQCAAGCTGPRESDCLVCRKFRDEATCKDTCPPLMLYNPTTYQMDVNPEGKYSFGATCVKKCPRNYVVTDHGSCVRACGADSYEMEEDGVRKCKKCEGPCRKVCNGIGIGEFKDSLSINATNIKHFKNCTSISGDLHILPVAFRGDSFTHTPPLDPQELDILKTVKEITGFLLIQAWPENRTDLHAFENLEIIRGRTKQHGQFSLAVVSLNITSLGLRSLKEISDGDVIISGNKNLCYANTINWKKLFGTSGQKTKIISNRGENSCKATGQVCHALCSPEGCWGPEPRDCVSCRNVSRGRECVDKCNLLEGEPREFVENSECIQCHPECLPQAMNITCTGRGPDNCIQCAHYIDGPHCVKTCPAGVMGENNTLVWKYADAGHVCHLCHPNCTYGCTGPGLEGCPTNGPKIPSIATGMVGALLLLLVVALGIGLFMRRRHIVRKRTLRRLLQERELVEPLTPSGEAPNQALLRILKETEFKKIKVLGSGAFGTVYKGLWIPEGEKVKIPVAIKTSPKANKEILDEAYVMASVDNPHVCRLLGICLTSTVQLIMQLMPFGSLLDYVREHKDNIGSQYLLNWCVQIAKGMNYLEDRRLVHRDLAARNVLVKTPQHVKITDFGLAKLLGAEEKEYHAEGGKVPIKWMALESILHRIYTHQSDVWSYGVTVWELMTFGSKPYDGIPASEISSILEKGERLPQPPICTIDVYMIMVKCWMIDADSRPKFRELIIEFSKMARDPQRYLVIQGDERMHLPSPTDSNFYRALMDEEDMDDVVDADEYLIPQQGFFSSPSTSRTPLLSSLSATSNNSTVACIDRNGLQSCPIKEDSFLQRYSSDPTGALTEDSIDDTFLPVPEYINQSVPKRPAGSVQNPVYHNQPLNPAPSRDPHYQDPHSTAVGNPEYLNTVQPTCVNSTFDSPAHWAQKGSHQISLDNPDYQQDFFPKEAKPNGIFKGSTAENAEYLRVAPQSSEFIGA
EGFR del19/C797S, sequence (P00533 with tags, fused parts or gaps DEL746-750/C797S): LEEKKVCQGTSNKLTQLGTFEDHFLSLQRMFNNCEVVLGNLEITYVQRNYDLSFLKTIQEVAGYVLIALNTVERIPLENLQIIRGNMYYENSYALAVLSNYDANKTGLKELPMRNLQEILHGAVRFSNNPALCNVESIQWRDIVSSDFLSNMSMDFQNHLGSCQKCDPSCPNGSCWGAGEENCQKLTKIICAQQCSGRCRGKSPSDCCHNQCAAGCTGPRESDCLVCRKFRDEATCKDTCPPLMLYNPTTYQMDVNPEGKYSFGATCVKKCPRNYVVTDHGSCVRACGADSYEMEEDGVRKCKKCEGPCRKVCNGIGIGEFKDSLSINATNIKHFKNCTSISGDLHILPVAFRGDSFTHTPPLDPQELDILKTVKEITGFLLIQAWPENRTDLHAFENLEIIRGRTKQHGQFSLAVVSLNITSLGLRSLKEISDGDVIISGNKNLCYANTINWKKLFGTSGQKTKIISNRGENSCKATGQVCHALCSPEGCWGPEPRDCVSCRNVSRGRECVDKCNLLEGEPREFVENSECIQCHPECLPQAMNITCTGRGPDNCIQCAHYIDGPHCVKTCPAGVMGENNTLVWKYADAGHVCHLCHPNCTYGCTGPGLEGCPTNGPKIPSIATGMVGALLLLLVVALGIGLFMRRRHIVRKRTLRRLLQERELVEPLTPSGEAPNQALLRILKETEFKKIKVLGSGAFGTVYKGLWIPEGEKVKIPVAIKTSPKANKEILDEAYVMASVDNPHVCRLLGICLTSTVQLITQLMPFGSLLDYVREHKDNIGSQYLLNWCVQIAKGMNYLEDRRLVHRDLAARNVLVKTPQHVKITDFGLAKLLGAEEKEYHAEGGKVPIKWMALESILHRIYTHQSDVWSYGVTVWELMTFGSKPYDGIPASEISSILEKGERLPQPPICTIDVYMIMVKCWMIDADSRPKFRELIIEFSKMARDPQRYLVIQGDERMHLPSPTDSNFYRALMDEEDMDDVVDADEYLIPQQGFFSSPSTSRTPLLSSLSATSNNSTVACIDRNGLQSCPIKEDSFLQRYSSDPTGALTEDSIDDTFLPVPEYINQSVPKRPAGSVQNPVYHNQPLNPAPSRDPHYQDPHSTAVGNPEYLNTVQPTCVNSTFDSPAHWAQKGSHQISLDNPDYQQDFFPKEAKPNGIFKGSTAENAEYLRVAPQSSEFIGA
EGFR wildtype (WT), sequence (P00533 25-1210): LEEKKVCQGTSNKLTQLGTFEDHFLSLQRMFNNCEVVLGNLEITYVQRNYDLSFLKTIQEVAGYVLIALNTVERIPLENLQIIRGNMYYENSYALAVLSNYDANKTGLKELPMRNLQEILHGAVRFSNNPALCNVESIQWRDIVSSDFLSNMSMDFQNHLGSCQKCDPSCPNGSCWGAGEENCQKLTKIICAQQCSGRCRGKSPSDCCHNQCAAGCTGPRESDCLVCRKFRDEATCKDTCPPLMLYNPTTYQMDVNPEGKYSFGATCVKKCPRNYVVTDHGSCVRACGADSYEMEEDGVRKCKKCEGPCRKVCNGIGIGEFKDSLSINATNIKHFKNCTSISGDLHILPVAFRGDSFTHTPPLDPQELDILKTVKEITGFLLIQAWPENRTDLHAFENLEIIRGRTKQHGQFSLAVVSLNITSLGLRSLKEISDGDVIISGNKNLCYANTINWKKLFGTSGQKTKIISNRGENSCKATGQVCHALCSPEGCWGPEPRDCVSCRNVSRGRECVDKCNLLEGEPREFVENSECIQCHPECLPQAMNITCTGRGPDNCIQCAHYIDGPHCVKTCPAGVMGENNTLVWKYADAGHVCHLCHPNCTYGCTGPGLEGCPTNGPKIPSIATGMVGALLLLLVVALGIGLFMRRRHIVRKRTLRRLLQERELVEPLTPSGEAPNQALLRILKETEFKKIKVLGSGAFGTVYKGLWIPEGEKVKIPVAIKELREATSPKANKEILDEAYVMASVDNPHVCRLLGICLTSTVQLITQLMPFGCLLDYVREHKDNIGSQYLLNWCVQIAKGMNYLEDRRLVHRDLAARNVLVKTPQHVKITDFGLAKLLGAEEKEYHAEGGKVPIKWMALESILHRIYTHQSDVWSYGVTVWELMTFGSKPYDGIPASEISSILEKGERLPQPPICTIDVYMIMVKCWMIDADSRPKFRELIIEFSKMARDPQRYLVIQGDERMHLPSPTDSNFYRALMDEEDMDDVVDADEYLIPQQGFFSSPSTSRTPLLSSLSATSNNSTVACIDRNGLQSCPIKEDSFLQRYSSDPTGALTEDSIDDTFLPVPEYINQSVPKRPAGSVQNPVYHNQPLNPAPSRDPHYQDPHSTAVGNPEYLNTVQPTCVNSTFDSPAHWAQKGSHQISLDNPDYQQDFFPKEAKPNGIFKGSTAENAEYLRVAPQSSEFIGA

SMILES	IC50 (EGFR del19/C797S; [1]) [nM]	IC50 (EGFR del19/C797S; [2]) [nM]	IC50 (EGFR L858R/C797S; [3]) [nM]	IC50 (EGFR L858R/C797S; [4]) [nM]	IC50 (EGFR del19/T790M/C797S; [5]) [nM]	IC50 (EGFR del19/T790M/C797S; [6]) [nM]	IC50 (EGFR L858R/T790M/C797S; [7]) [nM]	IC50 (EGFR L858R/T790M/C797S; [8]) [nM]	IC50 (EGFR wildtype (WT); [9]) [nM]	IC50 (EGFR wildtype (WT); [10]) [nM]	IC50 (EGFR del19/C797S; IC50 del19/C797S, 100 μM ATP) [nM]	IC50 (EGFR del19/C797S; [11]) [nM]	IC50 (EGFR L858R/C797S; IC50 L858R/C797S, 100 μM ATP) [nM]	IC50 (EGFR L858R/C797S; [12]) [nM]	IC50 (EGFR del19/T790M/C797S; IC50 del19/T790M/C797S, 100 μM ATP) [nM]	IC50 (EGFR del19/T790M/C797S; [13]) [nM]	IC50 (EGFR L858R/T790M/C797S; IC50 L858R/T790M/C797S, 100 μM ATP) [nM]	IC50 (EGFR L858R/T790M/C797S; [14]) [nM]	IC50 (EGFR wildtype (WT); IC50 WT, 100 μM ATP) [nM]	IC50 (EGFR wildtype (WT); [15]) [nM]
Cn1nc(-c2cnc(Nc3ccnc(-c4cnn(S(=O)(=O)C5CC5)c4)n3)cc2N[C@H]2CC[C@@H](CN3CCC3)CC2)cc1C(F)(F)F [Example 264, N^4-((1s,4s)-4-(Azetidin-1-ylmethyl)cyclohexyl)-N^2-(2-(1-(cyclopropylsulfonyl)-1H-pyrazol-4-yl)pyrimidin-4-yl)-5-(1-methyl-5-(trifluoromethyl)-1H-pyrazol-3-yl)pyridine-2,4-diamine]	0.9	0.8	2.2	0.4	1.4	1.7	0.6	0.4	244	–	–	–	–	–	–	–	–	–	–	–
CC1(O)CCC(Nc2cc(Nc3ccnc(-c4cnn(C5CCCCO5)c4)n3)ncc2-c2ccn(C(F)F)n2)CC1 (stereo not drawn) [Example 314, (1s,4s)-4-((5-(1-(Difluoromethyl)-1H-pyrazol-3-yl)-2-((2-(1-(tetrahydro-2H-pyran-2-yl)-1H-pyrazol-4-yl)pyrimidin-4-yl)amino)pyridin-4-yl)amino)-1-methylcyclohexan-1-ol]	300	133	1480	75.2	5.2	1.9	1.9	0.5	> 10000	595	–	–	–	–	–	–	–	–	–	–
CN(C)CCCn1ccc(-c2cnc(Nc3ccnc(-c4cnn(S(=O)(=O)C5CC5)c4)n3)cc2N[C@H]2CC[C@@H](C(C)(C)O)CC2)n1 [Example 278, 2-((1s,4s)-4-((2-((2-(1-(Cyclopropylsulfonyl)-1H-pyrazol-4-yl)pyrimidin-4-yl)amino)-5-(1-(3-(dimethylamino)propyl)-1H-pyrazol-3-yl)pyridin-4-yl)amino)cyclohexyl)propan-2-ol]	1	0.6	3.4	0.3	0.4	0.6	0.3	0.1	669	1.2	–	–	–	–	–	–	–	–	–	–
CN(C)CCCn1ccc(-c2cnc(Nc3ccnc(-c4cnn(S(=O)(=O)C5CC5)c4)n3)cc2N[C@H]2CC[C@@H](NCCF)CC2)n1 [Example 301, N^2-(2-(1-(Cyclopropylsulfonyl)-1H-pyrazol-4-yl)pyrimidin-4-yl)-5-(1-(3-(dimethylamino)propyl)-1H-pyrazol-3-yl)-N^4-((1s,4s)-4-((2-fluoroethyl)amino)cyclohexyl)pyridine-2,4-diamine]	0.4	–	3.5	–	0.1	–	0.1	–	1370	–	–	–	–	–	–	–	–	–	–	–
CS(=O)(=O)N1CC=C(c2nccc(Nc3cc(N[C@H]4CC[C@@](C)(O)CC4)c(-c4ccn(C(F)F)n4)cn3)n2)CC1 [Example 156, (1s,4s)-4-((5-(1-(Difluoromethyl)-1H-pyrazol-3-yl)-2-((2-(1-(methylsulfonyl)-1,2,3,6-tetrahydropyridin-4-yl)pyrimidin-4-yl)amino)pyridin-4-yl)amino)-1-methylcyclohexan-1-ol]	–	> 10000	–	339	–	35.2	–	3.2	–	986	–	–	–	–	–	–	–	–	–	–
CCS(=O)(=O)n1cc(-c2nccc(Nc3cc(N[C@H]4CC[C@@](C)(O)CC4)c(-c4ccn(C(F)F)n4)cn3)n2)cn1 [Example 308, (1s,4s)-4-((5-(1-(Difluoromethyl)-1H-pyrazol-3-yl)-2-((2-(1-(ethylsulfonyl)-1H-pyrazol-4-yl)pyrimidin-4-yl)amino)pyridin-4-yl)amino)-1-methylcyclohexan-1-ol]	0.4	0.5	4.1	0.4	0.4	0.4	0.4	0.2	3640	44.2	–	–	–	–	–	–	–	–	–	–
CN(C)C(=O)[C@H]1CC[C@@H](Nc2cc(Nc3ccnc(-c4cnn(S(=O)(=O)C5CC5)c4)n3)ncc2-c2ccn(C)n2)CC1 [Example 232, (1s,4s)-4-((2-((2-(1-(Cyclopropylsulfonyl)-1H-pyrazol-4-yl)pyrimidin-4-yl)amino)-5-(1-methyl-1H-pyrazol-3-yl)pyridin-4-yl)amino)-N,N-dimethylcyclohexane-1-carboxamide]	1.1	0.5	1.6	0.4	0.4	0.6	0.4	0.3	247	–	–	–	–	–	–	–	–	–	–	–
COc1ncc(-c2nccc(Nc3cc(N[C@H]4CC[C@@](C)(O)CC4)c(-c4ccn(C(F)F)n4)cn3)n2)cn1 [Example 312, (1s,4s)-4-((5-(1-(Difluoromethyl)-1H-pyrazol-3-yl)-2-((2′-methoxy-[2,5′-bipyrimidin]-4-yl)amino)pyridin-4-yl)amino)-1-methylcyclohexan-1-ol]	353	–	> 10000	–	2.4	1.3	6.6	1.3	> 10000	–	–	–	–	–	–	–	–	–	–	–

Continued, values first:

IC50 (EGFR del19/C797S; [1]) [nM]	IC50 (EGFR del19/C797S; [2]) [nM]	IC50 (EGFR L858R/C797S; [3]) [nM]	IC50 (EGFR L858R/C797S; [4]) [nM]	IC50 (EGFR del19/T790M/C797S; [5]) [nM]	IC50 (EGFR del19/T790M/C797S; [6]) [nM]	IC50 (EGFR L858R/T790M/C797S; [7]) [nM]	IC50 (EGFR L858R/T790M/C797S; [8]) [nM]	IC50 (EGFR wildtype (WT); [9]) [nM]	IC50 (EGFR wildtype (WT); [10]) [nM]	IC50 (EGFR del19/C797S; IC50 del19/C797S, 100 μM ATP) [nM]	IC50 (EGFR del19/C797S; [11]) [nM]	IC50 (EGFR L858R/C797S; IC50 L858R/C797S, 100 μM ATP) [nM]	IC50 (EGFR L858R/C797S; [12]) [nM]	IC50 (EGFR del19/T790M/C797S; IC50 del19/T790M/C797S, 100 μM ATP) [nM]	IC50 (EGFR del19/T790M/C797S; [13]) [nM]	IC50 (EGFR L858R/T790M/C797S; IC50 L858R/T790M/C797S, 100 μM ATP) [nM]	IC50 (EGFR L858R/T790M/C797S; [14]) [nM]	IC50 (EGFR wildtype (WT); IC50 WT, 100 μM ATP) [nM]	IC50 (EGFR wildtype (WT); [15]) [nM]	SMILES
0.5	0.6	1.9	0.5	0.2	0.3	0.4	0.1	975	2.3	–	–	–	–	–	–	–	–	–	–	O=S(=O)(C1CC1)n1cc(-c2nccc(Nc3cc(N[C@H]4CC[C@@H](CO)CC4)c(-c4ccn(CC(F)F)n4)cn3)n2)cn1 [Example 244, ((1s,4s)-4-((2-((2-(1-(Cyclopropylsulfonyl)-1H-pyrazol-4-yl)pyrimidin-4-yl)amino)-5-(1-(2,2-difluoroethyl)-1H-pyrazol-3-yl)pyridin-4-yl)amino)cyclohexyl)methanol]
–	–	–	–	–	–	–	–	–	–	5.8	4.2	172	5.7	0.4	0.2	0.7	0.1	> 10000	98.8	O=S(=O)(C1CC1)n1cc(-c2nccc(Nc3cc(N[C@H]4C[C@@H](CO)C4)c(-c4ccn(C(F)F)n4)cn3)n2)cn1 [Example 377, ((1s,3s)-3-((2-((2-(1-(Cyclopropylsulfonyl)-1H-pyrazol-4-yl)pyrimidin-4-yl)amino)-5-(1-(difluoromethyl)-1H-pyrazol-3-yl)pyridin-4-yl)amino)cyclobutyl)methanol]
–	–	–	–	–	–	–	–	–	–	–	6.1	–	3.7	–	0.8	–	0.5	–	9	Cc1nn(CC(F)(F)F)cc1-c1nccc(Nc2cc(N[C@H]3CC[C@@H](CCO)CC3)c(-c3ccn(CC(F)F)n3)cn2)n1 [Example 337, 2-((1s,4s)-4-((5-(1-(2,2-Difluoroethyl)-1H-pyrazol-3-yl)-2-((2-(3-methyl-1-(2,2,2-trifluoroethyl)-1H-pyrazol-4-yl)pyrimidin-4-yl)amino)pyridin-4-yl)amino)cyclohexyl)ethan-1-ol]
2	1.7	10	4.5	2.7	–	1	0.2	4010	8.4	–	–	–	–	–	–	–	–	–	–	CC(C)(O)[C@H]1CC[C@@H](Nc2cc(Nc3ccnc(-c4cnn(S(=O)(=O)C5CC5)c4)n3)ncc2-c2ccn(CC(F)F)n2)CC1 [Example 243, 2-((1s,4s)-4-((2-((2-(1-(Cyclopropylsulfonyl)-1H-pyrazol-4-yl)pyrimidin-4-yl)amino)-5-(1-(2,2-difluoroethyl)-1H-pyrazol-3-yl)pyridin-4-yl)amino)cyclohexyl)propan-2-ol]
11.9	9.1	119	6.7	1.2	0.9	1.8	0.6	> 10000	109	–	–	–	–	–	–	–	–	–	–	O=S(=O)(C1CC1)n1cc(-c2nccc(Nc3cc(NC4CCC(F)(CO)CC4)c(-c4ccn(C(F)F)n4)cn3)n2)cn1 (stereo not drawn) [Example 190, (4-((2-((2-(1-(Cyclopropylsulfonyl)-1H-pyrazol-4-yl)pyrimidin-4-yl)amino)-5-(1-(difluoromethyl)-1H-pyrazol-3-yl)pyridin-4-yl)amino)-1-fluorocyclohexyl)methanol]
4	–	36.1	–	0.9	0.9	0.8	0.4	> 10000	9.5	–	–	–	–	–	–	–	–	–	–	CN(CC(F)F)C(=O)[C@H]1CC[C@@H](Nc2cc(Nc3ccnc(-c4cnn(S(=O)(=O)C5CC5)c4)n3)ncc2-c2ccn(C(F)F)n2)CC1 [Example 204, (1s,4s)-4-((2-((2-(1-(Cyclopropylsulfonyl)-1H-pyrazol-4-yl)pyrimidin-4-yl)amino)-5-(1-(difluoromethyl)-1H-pyrazol-3-yl)pyridin-4-yl)amino)-N-(2,2-difluoroethyl)-N-methylcyclohexane-1-carboxamide]
